Source: US20210154162A1, “DRUG AND PHARMACEUTICAL COMPOSITION CONTAINING TRANSPORT PROTEIN INHIBITOR, AND USE” (Institute of Basic Medical Sciences Chinese Academy of …, priority 2018, published 2021)
Where a name gives a salt, the structure may show the parent alone.

What was measured:
SLC7A8 and PAT4 = assay: Kyn consumption by activated CD8+ T cells with SLC7A8/PAT4 inhibition or knockdown (ELISA); format: cell-based, mouse; details: Kyn 200 μM, 48 h
Method: (3) Scramble shRNA or shRNA against SLC7A8 and PAT4 were delivered via retrovirus to activated CD8^+ T cells for 24 h, and then the transduced T cells were treated with Kyn (200 μM) for 48 h. Kyn levels in the supernatants were determined by ELISA and the Kyn consumption was calculated.

PD-1 [1] = assay: AhR activity and PD-1 expression in CD8+ T cells with SLC7A8/PAT4 inhibition or knockdown; format: cell-based, mouse; details: for PD-1 upregulation: Kyn 200 μM, 48 h; for AhR activity: T cells treated with transporter inhibitor
Method: (4) The experimental steps were the same as those of step (3), except that the expression of PD-1 was analyzed by flow cytometry.

OVA-B16 TRCs = assay: OT-1 T cell cytotoxicity to OVA-B16 TRCs with SLC7A8/PAT4 inhibition or knockdown; format: cell-based, mouse; details: co-culture
Method: (5) Activated OT-1 T cells were transfected with scramble shRNA, PAT4 shRNAs (Sh1 and Sh2) or SLC7A8 shRNAs (Sh1 and Sh2) for 72 h, and then co-cultured with OVA-B16 TRCs. TRC apoptosis was analyzed by flow cytometry.

PD-1 [2] = assay: Effect of SAR and BCH on PD-1 expression in mouse CD8+ T cells (flow cytometry); format: cell-based; details: 200 μM Kyn + 10 mM SAR or 100 μM BCH, 48 h
Method: Mouse splenic CD8^+ T cells were obtained by magnetic bead sorting, and seeded into a U-shaped bottom 96-well plate (100000 cells/well) while anti-CD3/CD28 magnetic beads were added to activate T cells. The culture medium was RPMI-1640 added with 10 ng/mL mouse IL-2 and […] β-mercaptoethanol. Cells were grouped and treated with drugs as follows.
(§1) Control group 1 (PBS): culture medium+PBS;
(§2) Experimental group 2 (Kyn): culture medium+200 μM Kyn;
Experimental group 3 (Kyn+SAR): culture medium+200 μM Kyn+10 mM SAR;
Experimental group 4 (Kyn+BCH): culture medium+200 μM Kyn+100 μM BCH;
(§3) The expression level of PD-1 in CD8^+ T cells of each group was determined by flow cytometry after 48 h.

OVA-B16 cells = assay: Effect of SAR and BCH on killing of OVA-B16 cells by OT-1 CD8+ T cells (apoptosis, flow cytometry); format: cell-based, mouse; details: T cells pretreated 24 h with 10 mM SAR or 100 μM BCH; co-culture 1:10, 4 hours
Method: Splenic CD8^+ T cells of OT-1 mouse were obtained by magnetic bead sorting and seeded into a U-shaped bottom 96-well plate (100000 cells/well). Cells were grouped and treated with drugs as follows.
as §1
Experimental group 2 (SAR): culture medium+10 mM SAR;
Experimental group 3 (BCH): culture medium+100 μM BCH;
After T cells were pretreated for 24 hours, 3D-cultured OVA-B16 cells were co-cultured with OT-1 CD8^+ T cells at a ratio of 1:10, and the apoptosis of OVA-B16 cells was determined by flow cytometry after 4 hours.

PD-1 [3] = assay: Effect of SAR and BCH on PD-1 expression in human peripheral blood CD8+ T cells (flow cytometry); format: cell-based; details: breast cancer patients, 200 μM Kyn + 10 mM SAR or 100 μM BCH, 48 h
Method: Mononuclear cells were isolated and obtained from the peripheral whole blood of breast cancer patients by using Ficoll. CD8^+ T cells were sorted by magnetic beads, and seeded into a U-shaped bottom 96-well plate (100000 cells/well) while anti-CD3/CD28 magnetic beads were added to activate T cells. The culture medium was RPMI-1640 added with 10 ng/mL human IL-2. Cells were grouped and treated with drugs as follows.
as §1, §2
Experimental group 3 (Kyn+SAR): culture medium+200 μM Kyn+10 mM SAR; Experimental group 4 (Kyn+BCH): culture medium+200 μM Kyn+100 μM BCH;
as §3

PD-1 [4] = assay: PD-1 expression in anti-CD3/CD28 bead-activated CD8+ T cells treated with Kyn or other tryptophan metabolites (flow cytometry); format: cell-based, mouse; details: other tryptophan metabolites 500 μM, 24 h
Method: (4) The isolated splenic CD8^+ T cells were incubated with anti-CD3/CD28 beads in the presence of different concentrations of Kyn. PD-1 expression was determined by flow cytometry.
(5) The experimental steps were the same as those of step (4), except that CD8^+ T cells were treated with 200 μM Kyn for different time periods as shown in FIG. 2E.
(6) Anti-CD3/CD28 bead-activated CTLs were treated with PBS, 200 μM Kyn or other metabolites (500 μM) from the tryptophan pathway (melatonin, kynurinic acid and indoxyle sulphate). After 24 h, PD-1 expression was determined by flow cytometry.

PD-1 [5] = assay: PD-1 expression in activated CD8+ T cells treated with TCDD (qPCR, flow cytometry); format: cell-based, mouse; details: 48 h
Method: (7) Activated CD8^+ T cells were treated with TCDD for 48 h and then PD-1 expression was analyzed by qPCR (left) and flow cytometry (right). The data represented mean±SEM.

AhR = assay: PD-1 expression in activated CD8+ T cells treated with Kyn plus AhR inhibitor (flow cytometry); format: cell-based, mouse; details: Kyn plus inhibitor (DMF 10 or 20 μM), 72 h
Method: (4) CD8^+ T cells activated by anti-CD3/CD28 beads were treated with PBS, Kyn or Kyn/DMF (10 or 20 μM) for 72 h. The expression of PD-1 was determined by flow cytometry.

PAT4 and SLC7A8 [6] = assay: PAT4 and SLC7A8 expression in activated CD8+ T cells (real-time PCR, immunostaining); format: cell-based, mouse; details: activated CD8+ T cells, Kyn/CH-223191 (10 μM) or Kyn/DMF (20 μM), 48 h
Method: (2) Activated CD8^+ T cells were treated with PBS or Kyn (200 μM) for 24 h. The expression of PAT4 and SLC7A8 was determined by real-time PCR (left) and immunostaining (right). Bar, […].
(6) The mRNA expression of PAT4 and SLC7A8 was determined in activated CD8^+ T cells treated with PBS, Kyn, Kyn/CH-223191 (10 μM) or Kyn/DMF (20 μM) for 48 h.

PD-1 [7] = assay: PD-1 expression in human CD8+ T cells treated with Kyn and AhR inhibitors (flow cytometry); format: cell-based; details: human CD8+ T cells, Kyn plus inhibitor (DMF 20 μM), 48 h
Method: (4) CD8^+ T cells isolated from PBMCs of patients with breast cancer or lung cancer were activated by anti-CD3/CD28 beads and treated with PBS, Kyn (200 μM) or Kyn/DMF (20 μM) for 48 h. The expression of PD-1 was determined by flow cytometry.
(5) CD8^+ T cells isolated from patients with breast cancer or lung cancer were treated with DMF (20 μM) for 48 h. PD-1 expression was determined by flow cytometry (n=6).

PAT4 and SLC7A8 [8] = assay: PAT4 and SLC7A8 expression in CD8+ T cells from breast cancer patients (real-time PCR); format: cell-based, human; details: Kyn/DMF (20 μM) or Kyn/CH (50 μM), 48 h
Method: (8) CD8^+ T cells from breast cancer patients were treated with PBS, Kyn ([…] (20 μM) or Kyn/CH (50 μM) for 48 h. The expression of PAT4 and SLC7A8 was determined by real-time PCR. The determination results were as shown in FIG. 7I.

[9] = molecular target: T1, tryptophan transporter SLC1A5 (Mus musculus, UniProt P51912); assay: Effect of GPNA on the uptake of tryptophan by tumor cells (ELISA of lysates); format: cell-based; details: OVA-B16 cells, 50 ng/mL IFN-γ, 24 h
T1 construct: endogenous in cells; host or cells: mouse OVA-B16 melanoma cells
T1 sequence (P51912 1-553): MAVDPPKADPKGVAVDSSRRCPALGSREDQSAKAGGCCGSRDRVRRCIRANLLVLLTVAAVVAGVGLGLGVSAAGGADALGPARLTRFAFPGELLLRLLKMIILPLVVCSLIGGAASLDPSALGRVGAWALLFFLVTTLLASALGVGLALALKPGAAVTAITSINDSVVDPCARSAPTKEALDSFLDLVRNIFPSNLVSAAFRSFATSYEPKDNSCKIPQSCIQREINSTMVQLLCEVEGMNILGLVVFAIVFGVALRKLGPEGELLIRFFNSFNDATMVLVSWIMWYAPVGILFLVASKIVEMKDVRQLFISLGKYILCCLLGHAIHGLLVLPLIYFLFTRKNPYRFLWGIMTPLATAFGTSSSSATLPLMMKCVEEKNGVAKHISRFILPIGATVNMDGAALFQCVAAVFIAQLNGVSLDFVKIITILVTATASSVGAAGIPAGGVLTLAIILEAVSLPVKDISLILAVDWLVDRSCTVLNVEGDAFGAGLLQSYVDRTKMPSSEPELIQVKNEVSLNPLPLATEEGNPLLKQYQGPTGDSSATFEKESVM
Method: Mouse OVA-B16 cells were cultured in RPMI-1640 culture medium in vitro and were group and treated as follows.
as §1
Control group 2 (GPNA): culture medium+10 μM GPNA;
Experimental group 3 (IFN-γ): culture medium+50 ng/mL IFN-γ;
Experimental group 4 (IFN-γ+GPNA): culture medium+50 ng/mL IFN-γ+10 μM GPNA;
The cells in each group were collected after 24 h and ultrasonically broken, the concentrations of tryptophan in the lysates were determined by ELISA, and BCA protein assay was carried out at the same time.

CNCC(=O)O [SAR, sarcosine]
entry of Kyn into T cells (SLC7A8 and PAT4): blocked | PD-1 upregulation (PD-1 [1]): abolished | AhR activity (PD-1 [1]): inhibited | OT-1 T cell cytotoxicity to OVA-B16 TRCs (OVA-B16 TRCs): enhanced | expression of PD-1 in CD8+ T cells (PD-1 [2]): significantly reducing | apoptosis ratio of OVA-B16 tumor cells (OVA-B16 cells): increased significantly | expression of PD-1 in CD8+ T cells (PD-1 [3]): significantly reducing

O=C(O)c1cc(=O)c2ccccc2[nH]1 [kynurenic acid]
PD-1 expression (PD-1 [4]): none of them was able to alter PD-1 expression

Clc1cc2c(cc1Cl)Oc1cc(Cl)c(Cl)cc1O2 [TCDD]
PD-1 expression (PD-1 [5]): upregulated

NC1(C(=O)O)CC2CCC1C2 (centres unmarked) [BCH, 2-amino-2-norbornanecarboxylic acid]
entry of Kyn into T cells (SLC7A8 and PAT4): blocked | PD-1 upregulation (PD-1 [1]): abolished | AhR activity (PD-1 [1]): inhibited | OT-1 T cell cytotoxicity to OVA-B16 TRCs (OVA-B16 TRCs): enhanced | expression of PD-1 in CD8+ T cells (PD-1 [2]): significantly reducing | apoptosis ratio of OVA-B16 tumor cells (OVA-B16 cells): increased significantly | expression of PD-1 in CD8+ T cells (PD-1 [3]): significantly reducing

COc1ccc2[nH]cc(CCNC(C)=O)c2c1 [melatonin]
PD-1 expression (PD-1 [4]): none of them was able to alter PD-1 expression

O=S(=O)(O)Oc1c[nH]c2ccccc12 [indoxyl sulfate]
PD-1 expression (PD-1 [4]): none of them was able to alter PD-1 expression

Cc1ccccc1N=Nc1ccc(NC(=O)c2ccnn2C)c(C)c1 [CH-223191]
Kyn-dependent upsurge of PD-1 (AhR): thwarted | Kyn-induced upregulation of SLC7A8 and PAT4 (PAT4 and SLC7A8 [6]): effectively inhibiting | Kyn-induced PD-1 upregulation (PD-1 [7]): inhibited | Kyn-induced upregulation of SLC7A8 and PAT4 (PAT4 and SLC7A8 [8]): blocked

B1: IFN-γ: recombinant IFN-γ purchased from R & D Systems (protein, UniProt P01579 24-161, looked up)
Interferon gamma: QDPYVKEAENLKKYFNAGHSDVADNGTLFLGILKNWKEESDRKIMQSQIVSFYFKLFKNFKDDQSIQKSVETIKEDMNVKFFNSNKKKRDDFEKLTNYSVTDLNVQRKAIHELIQVMAELSPAAKTGKRKRSQMLFRG
uptake of tryptophan by tumor cells [9]: significantly increasing
